Test results taken from ChEMBL document CHEMBL4152294, “Design, synthesis, structure-activity relationships study and X-ray crystallography of 3-substituted-indolin-2-one-5-carboxamide derivatives as PAK4 inhibitors” (Eur J Med Chem, 2018).

How the values were obtained:
[1] = test system: A549; assay: Antiproliferative activity against human A549 cells after 72 hrs by CCK8 assay; format: functional, cell-based; conditions: A549, 72 h
[2] = test system: HCT-116; assay: Antiproliferative activity against human HCT116 cells after 72 hrs by CCK8 assay; format: functional, cell-based; conditions: HCT-116, 72 h

SMILES	IC50 [1] [nM]	IC50 [2] [nM]
O=C1Nc2ccc(C(=O)N[C@H](CO)c3ccccc3)cc2/C1=C(/c1ncc[nH]1)c1ccccc1F	666	88
O=C1Nc2ccc(C(=O)N[C@H](CO)c3ccccc3)cc2/C1=C(/c1ncc[nH]1)c1ccccc1Cl	1280	635
Cc1nc(Nc2n[nH]c3c2CN(C(=O)N[C@H](CN(C)C)c2ccccc2)C3(C)C)c2sccc2n1 [PF-03758309]	463	39
Cc1c[nH]c(/C(=C2\C(=O)Nc3ccc(C(=O)N[C@H](CO)c4ccccc4)cc32)c2ccccc2)n1	511	77

Results, then the compound that gave them:

IC50 [1] [nM]	IC50 [2] [nM]	SMILES
56100	4090	Cc1ncc(/C=C2\C(=O)Nc3ccc(C(=O)N[C@H](CO)c4ccccc4)cc32)[nH]1
17700	2580	Cc1nc(/C(=C2\C(=O)Nc3ccc(C(=O)N[C@H](CO)c4ccccc4)cc32)c2ccccc2)[nH]c1C
29800	2860	CCc1ncc(/C=C2\C(=O)Nc3ccc(C(=O)N[C@H](CO)c4ccccc4)cc32)[nH]1
